Patent US20150148551A1, “GENISTEIN FOR REDUCING LEVELS OF STORAGE COMPOUNDS IN THE TREATMENT AND/OR PREVENTION OF LYSOSOMAL STORAGE DISEASES (LSDS)” (3G THERAPEUTICS, INC., priority 2012, published 2015)

Tests used:
NPC1 = test: DNA microarray, NPC1 expression in fibroblasts exposed to genistein; format: cell-based, human; conditions: for NPC1 fold change Average: 48 h vs DMSO
Method: (§1) The experiments were conducted to characterise the transcriptomic profile of human fibroblast cells exposed to genistein, and in particular to determine the expression of genes encoding lysosomal enzymes involved in metabolism (i.e. synthesis and degradation) of organic substances. The absence or deficiency of these enzymes' activity is responsible for occurrence of various lysosomal storage diseases (LSD) (including MPS). The tested hypothesis assumed that genistein influences the expression of many genes, among which there are genes coding for enzymes required in metabolism of compounds, which are pathologically stored in LSD. The results provide important information regarding genistein action on the molecular level within the range of gene expression modulation by this substance. The experiment was conducted in biological quintuplicates. Human dermal fibroblasts (HDFa) were exposed in vitro for 1, 24 or 48 hours to: 30, 60 or 100 μM of genistein; 0.05% DMSO (K1); or were untreated (control cells) (K2), and total RNA was isolated and analysed.
(§2) Fibroblast cells were grown in Dulbecco (DMEM) medium supplemented with 10% fetal bovine serum (FBS) with the addition of 1% antibiotics and anti-fungal agents at 37° C. in humidified atmosphere of 5% CO2, until the required confluency was obtained.
(§3) To determine the effect of tested compound on the transcriptom of the fibroblast cells, the growth medium was replaced with fresh medium, either non-supplemented (0.05% DMSO), or containing genistein (30, 60 or 100 μM, in 0.05% DMSO). The exposure was done for 1, 24 or 48 hours.
(§4) Total RNA was isolated from fibroblasts using High Pure RNA Isolation Kit according to the protocol and then it was quantitatively evaluated using Quant-It™ RiboGreen® Assay Kit.
(§5) Biotinylated cRNA was prepared using Ambion Total PrepAmp Kit for Illumina arrays.
(§6) Standard hybridization and quantitative image analysis procedures—Illumina hybridization protocol and Illumina scanning protocol, were used.
(§7) Processing of the results was done during data definition, including: background correction (using background subtraction method), normalization (using quantile normalization algorithm with Illumina GenomeStudio software package: gene expression module version 1.9.0) and summarization (using method, which sums the values of signal intensities from a set of probes).

SLC11A2 = test: DNA microarray, SLC11A2 expression in fibroblasts exposed to genistein; format: cell-based, human; conditions: for SLC11A2 fold change Average: 48 h vs DMSO
Method: as §1, §2, §3, §4, §5, §6, §7

[1] = tested on: Human dermal fibroblasts (HDFa); test: Transcriptomic profiling of fibroblasts with DNA microarrays, genes of synthesis and degradation; format: cell-based; conditions: cells cultured in the presence vs absence of genistein
Method: as §1, with “analysed. […]” for “analysed.”
Total RNA was isolated from fibroblasts using High Pure RNA Isolation Kit according to the protocol and then it was quantitatively evaluated using Quant-It™ RiboGreen® Assay Kit. […]
Standard hybridization and quantitative image analysis procedures—Illumina hybridization protocol and Illumina scanning protocol, were used. […]

O=c1c(-c2ccc(O)cc2)coc2cc(O)cc(O)c12 [genistein, 4′,5,7-trihydroxy-3-phenylchromen-4-one]
NPC1 fold change Average 1h30/1hK1 (NPC1; 30 μM, 1 h vs 0.05% DMSO): 0.9973 fold change | NPC1 fold change Average (NPC1; 30 μM): 1.567 fold change | NPC1 fold change Average 1h60/1hK1 (NPC1; 60 μM, 1 h vs 0.05% DMSO): 1.035 fold change | NPC1 fold change Average (NPC1; 60 μM): 1.875 fold change | NPC1 fold change Average 1h100/1hK1 (NPC1; 100 μM, 1 h vs 0.05% DMSO): 0.9825 fold change | NPC1 fold change Average (NPC1; 100 μM): 2.269 fold change | SLC11A2 fold change Average 1h30/1hK1 (SLC11A2; 30 μM, 1 h vs 0.05% DMSO): 1.0227 fold change | SLC11A2 fold change Average (SLC11A2; 30 μM): 1.2196 fold change | SLC11A2 fold change Average 1h60/1hK1 (SLC11A2; 60 μM, 1 h vs 0.05% DMSO): 1.053 fold change | SLC11A2 fold change Average (SLC11A2; 60 μM): 1.549 fold change | SLC11A2 fold change Average 1h100/1hK1 (SLC11A2; 100 μM, 1 h vs 0.05% DMSO): 1.056 fold change | SLC11A2 fold change Average (SLC11A2; 100 μM): 1.499 fold change | expression of genes of degradation [1]: increased | expression of genes of synthesis [1]: reduced
